Activity calls are given as the source filed them. No cut-off for these calls is given here.
Biological target: Protein kinase C alpha type (Homo sapiens) (UniProt P17252)
Assay: Relative binding affinity for Protein kinase C alpha (Inactive)

CCCCCCCCCCCCCCCC(=O)OC[C@@H](CO)OC(=O)CCCCCCCCCCCCCCC
Relative binding affinity: inactive

Source: ChEMBL document CHEMBL1129354, “Molecular modeling and site-directed mutagenesis studies of a phorbol ester-binding site in protein kinase C” (J Med Chem, 1996)
